The values below come from US20050059725A1, “Methods of using and preparing thiolutin dioxide” (Aventis Pharma Deutschland GmbH, priority 2001, published 2005).

Holding throughout (type): biochemical
One assay concerns the target neurolysin (Homo sapiens, UniProt Q9BYT8). Nature of the assay: Neurolysin inhibition assay (fluorogenic substrate, 384-well). Particulars: substrate Mcc-Pro-Leu-Gly-D-Lys(Dnp)-OH 4 μM, 30° C., 30 min, Tris buffer pH 7.5. Here is the method:
An assay was performed on a CyBio pipetting system in a 384-well plate format in a final assay volume of 16 μl. In brief, 4 μl of appropriately diluted microbial extracts (dilution in 50 mM Tris buffer, pH 7.5) were distributed in wells of test plates (Greiner, white 384-small volume well plates). Thereafter, 4 μl of neurolysin (pre-diluted 1:5, 360 ng of protein) were added to each well. After a 10 minute pre-incubation of the samples and the enzyme at room temperature, the reaction was initiated by the addition of 8 μl of substrate (Mcc-Pro-Leu-Gly-D-Lys (Dnp)—OH, CALBIOCHEM) in Tris buffer. The final test concentration of the substrate was 4 μM.
After pipetting, the plates were immediately placed in a fluorometer (SpectraFluorplus, SLT) and the initial amount of fluorescence was read (λex: 360 nm/λem405 nm). The reaction was then allowed to proceed at 30° C. for 30 min, and a final fluorescence reading was taken.
The data are first blank corrected. Then, after subtracting the values at the zero time point from the respective values after 30 min, sample inhibition activity was expressed as 100−(Net Intensity compound/Net Intensity control)×100(%)
Each test plate contained a reasonable number of positive controls and blanks (buffer instead of enzyme).

Another assay addresses enkephalinase (Homo sapiens, UniProt P08473). The experiment in a line: Selectivity against other zinc-containing metalloproteases: enkephalinase. Particulars: selectivity statement.
Assay [1] has as its system angiotensin converting enzymes. The experiment in a line: Selectivity against other zinc-containing metalloproteases: angiotensin converting enzymes. Particulars: selectivity statement.

Sequence of neurolysin (Q9BYT8 38-704): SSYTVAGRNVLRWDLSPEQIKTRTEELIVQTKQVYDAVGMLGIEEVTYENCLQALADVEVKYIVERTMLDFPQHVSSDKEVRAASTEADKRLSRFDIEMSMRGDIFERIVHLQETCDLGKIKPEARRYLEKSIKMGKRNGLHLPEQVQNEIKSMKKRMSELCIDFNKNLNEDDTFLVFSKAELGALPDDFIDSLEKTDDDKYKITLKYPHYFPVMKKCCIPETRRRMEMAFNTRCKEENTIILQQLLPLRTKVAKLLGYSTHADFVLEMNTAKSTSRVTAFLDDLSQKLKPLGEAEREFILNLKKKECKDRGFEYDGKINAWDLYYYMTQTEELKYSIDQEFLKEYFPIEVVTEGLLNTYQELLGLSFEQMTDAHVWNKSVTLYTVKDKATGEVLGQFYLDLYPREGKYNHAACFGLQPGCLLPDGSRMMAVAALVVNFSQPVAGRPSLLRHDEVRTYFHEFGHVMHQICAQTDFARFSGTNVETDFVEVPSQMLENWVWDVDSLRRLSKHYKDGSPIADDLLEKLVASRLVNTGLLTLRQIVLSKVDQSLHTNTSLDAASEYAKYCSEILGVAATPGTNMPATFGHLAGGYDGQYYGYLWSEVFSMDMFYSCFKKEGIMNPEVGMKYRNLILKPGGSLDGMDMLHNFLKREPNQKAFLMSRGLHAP
Sequence of enkephalinase (P08473 whole entry, species assumed): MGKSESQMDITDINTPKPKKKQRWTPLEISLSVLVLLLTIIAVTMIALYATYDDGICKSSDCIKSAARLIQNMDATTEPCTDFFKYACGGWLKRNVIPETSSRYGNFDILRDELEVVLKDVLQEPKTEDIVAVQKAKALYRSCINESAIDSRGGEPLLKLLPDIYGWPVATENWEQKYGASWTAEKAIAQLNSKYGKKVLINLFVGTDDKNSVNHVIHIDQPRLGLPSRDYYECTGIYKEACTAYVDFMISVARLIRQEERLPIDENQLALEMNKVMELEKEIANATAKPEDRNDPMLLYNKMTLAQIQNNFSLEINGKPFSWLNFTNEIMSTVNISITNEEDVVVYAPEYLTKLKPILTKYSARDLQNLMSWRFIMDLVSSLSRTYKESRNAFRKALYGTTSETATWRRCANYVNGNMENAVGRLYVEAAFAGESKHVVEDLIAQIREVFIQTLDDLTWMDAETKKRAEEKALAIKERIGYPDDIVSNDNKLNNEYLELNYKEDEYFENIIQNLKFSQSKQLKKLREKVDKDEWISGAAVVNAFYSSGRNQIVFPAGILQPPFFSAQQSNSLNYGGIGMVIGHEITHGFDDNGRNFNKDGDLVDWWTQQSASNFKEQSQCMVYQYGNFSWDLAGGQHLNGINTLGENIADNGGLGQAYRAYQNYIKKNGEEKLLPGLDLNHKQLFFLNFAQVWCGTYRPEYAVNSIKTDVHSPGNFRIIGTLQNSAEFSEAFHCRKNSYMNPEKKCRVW

Take `CC(=O)NC1=C2SS(=O)(=O)C=C2N(C)C1=O` [thiolutin dioxide]: on neurolysin, the midpoint of inhibition, the IC50, lay at 600 nM. Besides, on enkephalinase, the blocking of enkephalinase entry is on record as “does not block”. Besides, the “blocking of angiotensin converting enzymes” value in assay [1] is reported as “does not block”.

As usually defined, the IC50 is the point on the concentration scale where inhibition reaches its midpoint. Low values mean higher potency, high ones lower potency.
